One may read the IC50 as the concentration needed to halve the response being measured.

In series [1] the target is T1, CYP17A1 17,20-lyase (Homo sapiens, UniProt P05093).
T1 construct: expressed in transfected cells; host or cells: COS-1 cells, transient transfection, microsomal fraction
T1 sequence (P05093 1-508): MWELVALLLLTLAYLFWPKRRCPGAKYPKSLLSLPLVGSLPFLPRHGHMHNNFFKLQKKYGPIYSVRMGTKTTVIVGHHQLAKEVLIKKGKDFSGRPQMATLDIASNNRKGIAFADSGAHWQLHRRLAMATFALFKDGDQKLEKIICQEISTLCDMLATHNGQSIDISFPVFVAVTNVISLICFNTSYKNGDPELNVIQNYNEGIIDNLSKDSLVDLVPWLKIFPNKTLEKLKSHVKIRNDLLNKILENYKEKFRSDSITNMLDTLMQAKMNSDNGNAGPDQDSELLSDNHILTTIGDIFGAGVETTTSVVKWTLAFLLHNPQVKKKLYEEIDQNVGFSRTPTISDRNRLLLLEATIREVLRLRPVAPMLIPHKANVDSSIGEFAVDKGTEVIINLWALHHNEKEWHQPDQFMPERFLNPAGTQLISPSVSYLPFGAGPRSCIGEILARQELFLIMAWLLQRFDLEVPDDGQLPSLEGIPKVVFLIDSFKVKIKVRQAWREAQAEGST
In words: CYP17A1 17,20-lyase activity assay, microsomes of transfected COS-1 cells. It counts as biochemical. To be noted: for IC50: cell-free, 17α-hydroxypregnenolone 500 nM, 1 h. The procedure:
(§1) Microsomes were prepared from COS-1 cells transiently transfected with plasmids for either CYP17A1 and POR for CYP17A1-hydroxylase assay (human CYP17A1 was available in our own plasmid collection after cloning into pcDNA3, POR was ordered from Genescript, Piscataway, USA, clone ID OHu25584C), CYP17A1, POR and cytochrome b5 for CYP17A1 17,20-lyase assay (cytochrome b5 was from Genescript, clone ID OHu09495D), POR and CYP21A2 (Genescript, CYP21A2 clone ID OHu18602D), or 3β-HSD2 (Genescript, clone ID OHu14034D). Transfection was performed using PEI and equal amounts of required plasmids with a total DNA amount of 8 µg per transfection of 3,000,000 cells. After overnight incubation, cells were washed with prewarmed PBS before adding ice-cold PBS. Cells were collected and centrifuged at 600 × g for 4 min at 4 °C, washed with ice cold PBS and centrifuged again. The pellet was resuspended in a resuspension buffer (20 mM Tris, pH 7.5, 50 mM KCl, 2 mM MgCl2, 0.25 M sucrose). Cells were disrupted with 30 S by a glass potter (2 cm^3) as described above. The homogenate was centrifuged for 20 min at 12,000 × g and 4 °C. Microsomes were pelleted by ultracentrifugation at 100,000 × g for 1 h at 4 °C. The pellet was resuspended in reaction buffer and the protein concentration determined using the Pierce Protein BCA kit as described above.
Microsomes, 250 µg/mL, expressing CYP17A1, POR and cytochrome b5 were incubated in reaction buffer for 10 min with 1 mM NADPH and the azole antifungals. The reaction was started by adding 500 nM 17α-hydroxypregnenolone in a total reaction volume of 50 µL. After 1 h of incubation at 37 °C, the reaction was stopped adding 50 µL methanol. Samples were evaporated to dryness, reconstituted in 6 µL methanol, diluted 1:25 in water and the DHEA concentration was quantified using an ELISA kit (DEH3344, Demeditec, Kiel, Germany). Absorbance was measured using a BioTek Citation5 imaging reader.

The target of series [2] is T2, CYP17A1 17α-hydroxylase (Homo sapiens, UniProt P05093).
T2 construct: expressed in transfected cells; host or cells: COS-1 cells, transient transfection, microsomal fraction
T2 sequence (P05093 1-508): T1 sequence (P05093 1-508)
In words: CYP17A1 17α-hydroxylase activity assay, microsomes of transfected COS-1 cells. It counts as biochemical. The settings on record: cell-free. Here is the method: as §1
(§2) Microsomal protein (250 µg/mL) was preincubated with 1 mM NADPH and the compound of interest in reaction buffer for 10 min. The reaction was started by adding progesterone spiked with a radioactive tracer (final activity 0.025 mCi) to a final concentration of 500 nM. After 10 min of incubation at 37 °C the reaction was stopped by adding enzyme substrate and product at a final concentration of 1 mM in methanol, followed by shock-freezing in liquid nitrogen. Steroids were separated by thin layer chromatography on SIL G-25 UV254 TLC plates (Macherey-Nagel, Düren, Germany) using chloroform and ethyl acetate (1:4; v:v). Bands were excised and radiolabeled steroids analyzed by scintillation counting using […] Plus cocktail (Zinsser Analytic, Frankfurt am Main, Germany) and a β-counter (Packard, Connecticut, USA). Relative conversion was calculated based on total counts.

Series [3] addresses T3, CYP21A2 (Homo sapiens, UniProt P08686).
T3 construct: host or cells: COS-1 cells, transient transfection, microsomal fraction
T3 sequence (P08686 1-495): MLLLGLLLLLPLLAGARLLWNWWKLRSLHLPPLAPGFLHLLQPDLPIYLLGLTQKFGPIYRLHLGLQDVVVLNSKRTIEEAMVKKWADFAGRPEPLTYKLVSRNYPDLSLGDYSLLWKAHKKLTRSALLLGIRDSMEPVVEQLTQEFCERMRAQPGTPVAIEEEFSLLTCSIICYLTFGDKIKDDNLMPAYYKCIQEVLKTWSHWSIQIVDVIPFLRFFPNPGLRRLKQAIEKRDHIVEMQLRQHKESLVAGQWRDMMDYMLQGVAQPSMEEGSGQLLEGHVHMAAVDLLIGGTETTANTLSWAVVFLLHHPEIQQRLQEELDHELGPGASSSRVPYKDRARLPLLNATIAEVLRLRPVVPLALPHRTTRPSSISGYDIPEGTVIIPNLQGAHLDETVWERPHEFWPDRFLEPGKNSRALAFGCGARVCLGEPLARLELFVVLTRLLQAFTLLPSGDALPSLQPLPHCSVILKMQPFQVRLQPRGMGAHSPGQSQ
Put plainly: CYP21A2 activity assay, microsomes of transfected COS-1 cells. Format: biochemical. The settings on record: cell-free, progesterone 500 nM, 10 min. Here is the method: as §1, §2

Series [4] relates to H295R cells. In words: Steroidogenesis assay in forskolin-stimulated H295R cells, UHPLC-MS/MS. Format: cell-based, human. The settings on record: forskolin-stimulated, 48 h, in words. The procedure: Briefly, 200,000 cells/mL between passages 5 and 10 were seeded in a 24-well plate. After 24 h, the medium was replaced by fresh medium containing reference or test compounds. […] As a time zero control, complete medium was incubated without cells. After 48 h of incubation, the cell culture supernatant was collected and stored at −20 °C until steroid quantification was performed by ultra-high liquid chromatography tandem mass spectrometry (UHPLC-MS/MS). All experiments were performed three times independently in technical duplicates.
Using water, the sample volume was adapted to 1 mL. Samples were extracted using Oasis HLB 3 cc SPE cartridge (30 mg, 30 μm particle size, Waters, Massachusetts, USA). Columns were preconditioned with 1 mL ethyl acetate and water prior to application of samples. After sample loading, columns were washed three times with 1 mL methanol (10% v/v) and water before samples were eluted applying 0.75 mL ethyl acetate twice. Eluates were evaporated to dryness and reconstituted in 50 µL methanol. Samples were applied to a reverse phase column (Waters Acquity UPLC BEH C18, 1.7 μm, 2.1 mm × 150 mm). […] Applied mobile phases consisted of water, acetonitrile and formic acid (95/5/0.1; v/v/v and 5/95/0.1; v/v/v). For data analysis, Hunter software version B.09.00 (Agilent Technologies) was used. Lower limit of detection (LOD), lower limit of quantification (LLOQ), and upper limit of quantification (ULOQ) are shown in Table 1.

Details of series [5]: method as in earlier work. To be noted: ref Zhang et al., 2018, Märtson et al., 2019, Vena et al., 2020, Risum et al., 2021, cited from earlier work.
Series [6] relates to 11β-HSD2. More on the design: method as in Beck et al., 2017, Beck et al., 2020a. The settings on record: in words, ref Beck et al., 2017, Beck et al., 2020a; cited from earlier work.
For series [7], the target named is T4, CYP11A1 (Homo sapiens, UniProt P05108).
T4 construct: host or cells: V79-4 cells (Chinese hamster), transient transfection, mitochondrial fraction
T4 sequence (P05108 40-521): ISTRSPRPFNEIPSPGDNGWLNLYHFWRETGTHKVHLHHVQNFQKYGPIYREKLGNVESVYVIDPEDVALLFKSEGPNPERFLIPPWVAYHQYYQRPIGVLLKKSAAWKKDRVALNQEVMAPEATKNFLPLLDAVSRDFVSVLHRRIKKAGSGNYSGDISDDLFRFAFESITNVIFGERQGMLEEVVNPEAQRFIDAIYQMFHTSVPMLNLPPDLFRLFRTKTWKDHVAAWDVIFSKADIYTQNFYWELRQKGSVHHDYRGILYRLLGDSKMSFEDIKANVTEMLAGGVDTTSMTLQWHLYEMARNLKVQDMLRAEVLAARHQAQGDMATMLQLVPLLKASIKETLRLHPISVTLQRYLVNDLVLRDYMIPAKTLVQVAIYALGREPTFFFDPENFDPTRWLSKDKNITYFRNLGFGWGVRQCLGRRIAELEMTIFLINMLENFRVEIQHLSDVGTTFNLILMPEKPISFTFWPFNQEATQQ
In words: CYP11A1 assay based on mitochondrial fraction of V79-4 cells. It counts as biochemical. The settings on record: 10 µM, 20S-hydroxycholesterol 2 µM, 4 h, qualitative, assay of low sensitivity. Here is the method: Mitochondria were prepared as described previously with modifications ([Frezza et al., 2007]). Briefly, V79-4 cells (3,000,000) were seeded 4 h prior to transfection with 4 µg of expression plasmid for CYP11A1 and adrenodoxin (GeneScript Piscataway, USA, clone IDs OHu18602D and OHu55929D) using polyethylemine (PEI) in a PEI/DNA ratio of 3:1 (w/w). At 4 h post-transfection, medium was changed and cells were incubated overnight. Cells were collected in ice cold phosphate buffered saline (PBS) and centrifuged at 600 × g for 10 min at 4 °C. The pellet was resuspended in ice cold isolation buffer (10 mM Tris/MOPS, pH 7.4, 1 mM EGTA/Tris, pH 7.4, 200 mM sucrose in water) and transferred to a glass potter, followed by 35 S using a 2 cm^3 glass Teflon pestle. The homogenate was centrifuged for 10 min at 600 × g and 4 °C. The supernatant was collected and centrifuged for 10 min at 7000 × g at 4 °C. The pellet was washed and resuspended in 200 μL ice cold isolation buffer. After centrifugation, the pellet containing the mitochondrial fraction was resuspended in 30 μL reaction buffer (25 mM HEPES pH 7.4, 0.1 mM DTT, 0.1 mM EDTA, 4 mM MgCl2) and the protein content was determined by the BCA assay according to the manufacturer (Pierce BCA protein assay kit, Thermo Scientific, Rockford, USA). Bovine serum albumin provided with the kit was used as reference protein and absorbance was measured using a BioTek Cytation5 Imaging Reader (Agilent BioTek).
For the CYP11A1 activity assay, 500 µg/mL of freshly prepared mitochondrial fraction were pre-incubated on ice with reaction buffer, 1 mM NADPH and either vehicle (0.1% DMSO), 10 µM of the positive control ketoconazole ([Mast et al., 2013]) or the triazole antifungals for 10 min. The reaction was started by adding the substrate 20S-hydroxycholesterol at a final concentration of 2 µM in a reaction volume of 50 µL. After 4 h of incubation at 37 °C, the reaction was stopped by adding 50 µL methanol and shock-freezing in liquid nitrogen. Samples were stored at −80 °C until sample preparation for pregnenolone detection using an ELISA kit (Alpco, Salem, USA). Sample preparation included evaporation of samples to dryness, reconstitution in 6 µL methanol and 1:25 (v:v) dilution in water. The ELISA was performed according to the manufacturer and absorbance was measured using a BioTek Citation5 imaging reader.

Where [8] appears, read: progesterone 500 nM, 10 min, read-out: IC50 CYP17A1 17α-hydroxylase mean.

Like-named read-outs stand apart in the source and are kept apart here.

Consider `CC(O)C(C)n1ncn(-c2ccc(N3CCN(c4ccc(OCC5COC(Cn6cncn6)(c6ccc(Cl)cc6Cl)O5)cc4)CC3)cc2)c1=O` (centres unmarked) [OH-itraconazole, Hydroxyitraconazole], for which the results for the IC50 in series [1], in series [2] (setting [8]) and in series [3] were 2480 nM, 7160 nM and > 10000 nM, respectively. Also, the “lower inhibitory potency against 17,20-lyase than posaconazole” value in series [1] (relative to posaconazole) is on record as 10 times. Moreover, the “inhibition of CYP17A1 17α-hydroxylase” value in series [2] (in words) is given as “very weakly”.

With `OC(Cn1cncn1)(Cn1cncn1)c1ccc(F)cc1F` [fluconazole], in series [4], the “effect on the steroid profile” value is listed as “only minor effects on the steroid profile”. In addition, the IC50 in series [1], in series [2] (setting [8]) and in series [3] was > 10000 nM throughout. Further, the serum trough concentration was ~3 µM in series [5] (molar value in brackets) and 11 µg/mL in series [5]. Further, the “inhibition of 11β-HSD2” value in series [6] is “inactive”.

`CC(=O)N1CCN(c2ccc(OCC3COC(Cn4ccnc4)(c4ccc(Cl)cc4Cl)O3)cc2)CC1` (centres unmarked) [ketoconazole]: the “inhibition of CYP11A1 activity” value in series [7] was “weak inhibitory effect”.

Turning to `CCCN(CCOc1c(Cl)cc(Cl)cc1Cl)C(=O)n1ccnc1` [prochloraz], the “effect on the steroid profile” value in series [4] is “significant accumulation of progesterone”. The IC50 stood at 40 nM in series [1], 90 nM in series [2] (setting [8]), 94.5 nM in series [2] (read-out: IC50 against 17α-hydroxylase) and 210 nM in series [3].

Take `C[C@@H](c1ncncc1F)[C@](O)(Cn1cncn1)c1ccc(F)cc1F` [voriconazole]: the “effect on the steroid profile” value in series [4] is on record as “only minor effects on the steroid profile”. The IC50 in series [1], in series [2] (setting [8]) and in series [3] was > 10000 nM each time. Moreover, in series [6], the “inhibition of 11β-HSD2” value is “inactive”.
